Experimental data published in patent US20220011296A1, “DETERMINING TREATMENT RESPONSE IN SINGLE CELLS” (Dana-Farber Cancer Institute, Inc., priority 2018, published 2022).
“Also recorded” adds a separate entry of the source.

Tests used:
Type in all cases: cell-based, human
CNS Lymphoma cells = experiment: Sample viability (Live/Dead), CNS lymphoma; settings: 10 nM Ibrutinib, 2 days; vehicle 74%
Experimental: (§1) Primary Sample Handling. The six primary samples underwent the same protocol with regards to disassociation, recovery, and drugging; however, the exact timeline of each tissue varied slightly based on the amount of tissue and drug used (Table 1, below). After at least [culture time] in culture (with the exception of CNS lymphoma which was cultured for 24 hours), persistent red blood cells were removed with RBC lysis buffer (00-433-57, Thermo Fisher Scientific). The remaining cells were then dissociated with Accutase (A6964, Sigma-Aldrich) and further purified via demyelination (130-096-733, Miltenyi Biotec) with MS separation columns (130-042-201, Miltenyi Biotec), or debris removal (130-109-398, Miltenyi Biotec). The purified cells were plated in 6 or 24 well plates and allowed to recover in the well plate for [recovery time] before addition of the drug. After [drug duration] days, the samples were prepared for sSMR for drug response measurements by dissociation into a single-cell suspension using Accutase and gentle pipetting. Cells were resuspended at a concentration of 100,000 cells/mL in Neurocult NS-A (as prepared above) with the same concentration of drug or DMSO as their respective culture. Measurements for sample viability were determined (Table 2, below).

Breast Met cells = experiment: Sample viability (Live/Dead), breast metastasis; settings: 3 days, vehicle 35%
Experimental: as §1

Normal brain cells = experiment: Sample viability (Live/Dead), normal brain; settings: 250 μM TMZ, 3 days; vehicle 35%
Experimental: as §1

Glioblastoma cells = experiment: Sample viability (Live/Dead), glioblastoma; settings: 250 μM TMZ, 8 days; vehicle 73%
Experimental: as §1

[1] = tested on: glioblastoma multiforme (GBM) patient-derived cell lines (PDCLs); experiment: Single cell mass / MAR assay in patient-derived cell lines; settings: TMZ compared with DMSO, heterogeneous cohort of PDCLs, FIG. 7A
Experimental: A single cell protocol for monitoring the mass accumulation rate (MAR) in response to chemotherapy (FIGS. 6A-6F). After tumor resection, the tissue is dissociated into single cells (FIG. 6A). The single cells from the dissociated tumor is measured within a week of resection using the mass/MAR of the single cells in response to chemotherapeutic agents (FIG. 6C). In addition to acute sensitivity testing, dissociated tumor cells from patient samples can also be grown long-term into robust cell lines (e.g., patient-derived cell lines, PDCLs), where high throughput experiments can be performed and analyzed relative to a more complete genomic background of the tissue (FIG. 6D). Because this assay is high throughput, the MAR can be measured with more conditions relative to acute patient samples. These PDCLs can be implanted in vivo to allow MAR measurements to be taken ex vivo from treated animals (e.g., mice). Metabolic readouts (e.g., CellTiter-Glo, CTG) and spheroid area analysis (e.g., IncuCyte) were conducted in parallel to the novel single cell MAR assays described herein (FIG. 6E).
Single cell MAR experiments were conducted in both PDCLs and acute patient models (FIGS. 7A-7D). […] The single cell MAR assay detected changes within 24 hours after treatment with a chemotherapeutic (TMZ) compared with DMSO (FIG. 7A).

[2] = tested on: Recurrent Glioblastoma cells; experiment: Sample viability (Live/Dead), recurrent glioblastoma; settings: 1 μM Abema, 3 days; vehicle 67%
Experimental: as §1

[3] = tested on: metastatic non-small-cell lung cancer cells (BT1443); experiment: sSMR buoyant mass and MAR measurement, lung metastasis (BT1443); settings: carboplatin 100 μM, 72 h
Experimental: Patient-derived cells from six different types of brain tissues were assessed for drug sensitivity in the sSMR: non-tumor brain tissue from epilepsy surgery, glioblastoma, recurrent glioblastoma, breast metastasis, lung metastasis, and primary CNS lymphoma. Resected samples obtained with patient consent to research (Brigham and Women's Hospital, DF/HCC IRB-approved consent protocol 10-417) were enzymatically and physically dissociated using the Brain Tumor Dissociation Kit P (130-095-942, Miltenyi Biotec) and gentleMACS Dissociator (130-093-235, Miltenyi Biotec). […]
Primary Sample Handling. […] Measurements for sample viability were determined (Table 2, below).
Measurements were obtained from […] types of primary patient sample types, including: non-tumor brain tissue resected for a non-tumor condition (FIGS. 5A-5B, Table 6) (n=1); primary glioblastoma (FIGS. 5C-5D, Table 7) and recurrent glioblastoma (FIGS. 5E-5F, Table 8) (n=2); metastatic breast adenocarcinoma (FIGS. 5G-5H, Table 9) (n=1); metastatic non-small-cell lung cancer (FIGS. 5I-5J, Table 10) (n=1); and primary central nervous system (CNS) lymphoma (FIGS. 5K-5L, Table 11) (n=1). […] Overall, mass and MAR were measured for 1092 cells with an average of 84 cells measured per condition over 13 conditions tested (FIGS. 1B-1C). […]

Lung Met cells = experiment: Sample viability (Live/Dead), lung metastasis; settings: 100 μM Carbo, 3 days; vehicle 80%
Experimental: as §1

C=CC(=O)N1CCC[C@@H](n2nc(-c3ccc(Oc4ccccc4)cc3)c3c(N)ncnc32)C1 [Ibrutinib]
Drug 1 Viability (Live/Dead) (CNS Lymphoma cells): 65%

CO[C@H]1C[C@@H]2CC[C@@H](C)[C@@](O)(O2)C(=O)C(=O)N2CCCC[C@H]2C(=O)O[C@H]([C@H](C)C[C@@H]2CC[C@@H](OCCO)[C@H](OC)C2)CC(=O)[C@H](C)/C=C(\C)[C@@H](O)[C@@H](OC)C(=O)[C@H](C)C[C@H](C)/C=C/C=C/C=C/1C [RAD001, everolimus]
Drug 1 Viability (Live/Dead) (Breast Met cells; 1 nM RAD): 32%

Cn1nnc2c(C(N)=O)ncn2c1=O [TMZ, Temozolomide]
Drug 1 Viability (Live/Dead) (Normal brain cells): 30%
Drug 1 Viability (Live/Dead) (Glioblastoma cells): 69%
time after treatment at which single cell MAR changes were detected [1]: ≤ 24 h

CCN1CCN(Cc2ccc(Nc3ncc(F)c(-c4cc(F)c5nc(C)n(C(C)C)c5c4)n3)nc2)CC1 [Abemaciclib]
Drug 1 Viability (Live/Dead) [2]: 59%
Drug 2 Viability (Live/Dead) (Breast Met cells; 100 nM Abema): 35%

N.N.O=C([O-])C1(C(=O)[O-])CCC1.[Pt+2] [Carboplatin]
Mass-normalized MAR vs vehicle (in words) [3]: significantly reduced; also recorded: Statistically significant reductions
Drug 1 Viability (Live/Dead) (Lung Met cells): 74%
